ChEMBL document CHEMBL4725449, “Brain Penetrable Inhibitors of Ceramide Galactosyltransferase for the Treatment of Lysosomal Storage Disorders” (ACS Med Chem Lett, 2020)

What was measured:
[1] = Volume of distribution at steady state in Sprague-Dawley rat at 1 mg/kg, iv; format: ADME, organism-based; settings: in vivo, read-out: Vdss
[2] = Volume of distribution at steady state in Beagle dog at 1 mg/kg, iv; format: ADME, organism-based, Canis lupus familiaris; settings: in vivo, read-out: Vdss
[3] = molecular target: T1, UDP-glucuronosyltransferase 2B15 (Homo sapiens, UniProt P54855); experiment: Inhibition of UGT2B15 (unknown origin); format: ADME
T1 sequence (P54855 whole entry): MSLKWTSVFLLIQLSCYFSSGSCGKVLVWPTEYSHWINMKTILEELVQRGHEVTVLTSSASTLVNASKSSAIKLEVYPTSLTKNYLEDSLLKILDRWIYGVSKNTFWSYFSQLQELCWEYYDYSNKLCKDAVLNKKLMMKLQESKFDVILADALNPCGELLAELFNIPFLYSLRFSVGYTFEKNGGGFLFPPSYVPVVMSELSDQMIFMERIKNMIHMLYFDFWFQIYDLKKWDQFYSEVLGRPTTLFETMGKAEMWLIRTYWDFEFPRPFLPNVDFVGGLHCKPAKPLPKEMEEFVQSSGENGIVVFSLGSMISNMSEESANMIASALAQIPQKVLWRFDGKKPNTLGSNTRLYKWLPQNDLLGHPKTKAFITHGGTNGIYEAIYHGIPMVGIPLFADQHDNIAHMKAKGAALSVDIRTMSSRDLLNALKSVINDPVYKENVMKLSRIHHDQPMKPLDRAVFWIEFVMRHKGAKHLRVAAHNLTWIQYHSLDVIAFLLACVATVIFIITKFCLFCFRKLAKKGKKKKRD

[4] = Protein binding in C57BL/6 mouse plasma; format: ADME, cell-free; settings: read-out: PPB
[5] = AUC (0 to last) in C57BL/6 mouse at 3 mg/kg, po; format: ADME, organism-based; design: time 0 - last, route oral, dose 3 mg/kg; settings: in vivo
[6] = (§1) In vivo inhibition of GalCer de novo synthesis in adult C57BL/6 mouse kidney assessed as reduction in [13C] galactose incorporation into GalCer at 1 mg/kg, po via gavage treated with compound for 1 hr prior to intraperitoneal injection of [13C] galactose measured after 5 hrs of compound administration relative to control; format: functional
[7] = Tmax in Sprague-Dawley rat at 3 mg/kg, po; format: ADME, organism-based; settings: in vivo
[8] = (§2) In vivo inhibition of GalCer de novo synthesis in PN14 to PN21 days C57BL/6 mouse brain assessed as reduction in [13C] galactose incorporation into GalCer at 30 mg/kg, po bid for 2 days and single dose at day 3 treated 1 hr prior to intraperitoneal injection of [13C] galactose measured after 5 hrs of last dose relative to control; format: functional; settings: C57BL/6, 72 h, time 3 day
[9] = as §1, with “of SFT” for “of GalCer”, “into SFT” for “into GalCer”, “at 30” for “at 1”; format: functional
[10] = Oral bioavailability in C57BL/6 mouse at 3 mg/kg; format: ADME, organism-based; settings: in vivo
[11] = Clearance in Sprague-Dawley rat at 1 mg/kg, iv; format: ADME, organism-based; settings: in vivo
[12] = molecular target: T2, 2-hydroxyacylsphingosine 1-beta-galactosyltransferase (Homo sapiens, UniProt Q16880); experiment: Inhibition of UGT8 in human OE19 cells assessed as redcution in GalCer accumulation measured after 72 hrs by LC-MS/MS analysis; format: cell-based
T2 sequence (Q16880 whole entry): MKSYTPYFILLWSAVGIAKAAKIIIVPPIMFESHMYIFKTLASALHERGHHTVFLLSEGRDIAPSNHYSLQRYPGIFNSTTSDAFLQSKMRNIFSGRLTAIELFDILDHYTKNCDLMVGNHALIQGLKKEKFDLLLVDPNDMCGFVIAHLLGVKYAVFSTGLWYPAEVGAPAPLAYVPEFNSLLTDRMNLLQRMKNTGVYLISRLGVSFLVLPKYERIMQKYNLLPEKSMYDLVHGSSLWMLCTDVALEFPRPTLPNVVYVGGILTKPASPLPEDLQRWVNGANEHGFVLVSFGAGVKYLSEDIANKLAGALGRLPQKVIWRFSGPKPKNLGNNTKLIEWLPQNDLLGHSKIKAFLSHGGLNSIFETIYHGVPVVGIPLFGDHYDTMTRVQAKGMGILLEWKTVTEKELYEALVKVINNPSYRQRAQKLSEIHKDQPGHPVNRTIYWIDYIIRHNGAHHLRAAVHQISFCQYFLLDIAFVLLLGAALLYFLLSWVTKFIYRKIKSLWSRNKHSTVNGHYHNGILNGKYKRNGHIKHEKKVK

[13] = Cmax in Sprague-Dawley rat at 3 mg/kg, po; format: ADME, organism-based; design: route oral, dose 3 mg/kg; settings: in vivo
[14] = as §1, with “of SFT” for “of GalCer”, “into SFT” for “into GalCer”, “at 10” for “at 1”; format: functional
[15] = molecular target: T3, UDP-glucuronosyltransferase 1A1 (Homo sapiens, UniProt P22309); experiment: Inhibition of UGT1A1 (unknown origin); format: ADME
T3 sequence (P22309 whole entry): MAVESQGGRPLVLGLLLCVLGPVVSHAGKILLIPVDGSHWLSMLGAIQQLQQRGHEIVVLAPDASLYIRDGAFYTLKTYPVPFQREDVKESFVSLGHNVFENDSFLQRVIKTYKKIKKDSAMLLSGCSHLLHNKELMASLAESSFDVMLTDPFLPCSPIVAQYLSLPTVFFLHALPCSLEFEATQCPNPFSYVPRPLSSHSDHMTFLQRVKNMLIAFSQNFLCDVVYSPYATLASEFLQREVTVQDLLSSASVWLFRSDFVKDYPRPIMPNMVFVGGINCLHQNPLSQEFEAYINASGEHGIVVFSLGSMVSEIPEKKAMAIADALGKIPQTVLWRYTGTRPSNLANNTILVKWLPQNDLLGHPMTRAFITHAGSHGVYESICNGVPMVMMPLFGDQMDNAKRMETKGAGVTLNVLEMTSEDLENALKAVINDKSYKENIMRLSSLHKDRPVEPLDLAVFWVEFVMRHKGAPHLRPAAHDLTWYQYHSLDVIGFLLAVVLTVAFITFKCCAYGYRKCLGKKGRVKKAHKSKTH

[16] = as §1, with “SFT” for “GalCer”; format: functional
[17] = Oral bioavailability in Sprague-Dawley rat at 3 mg/kg; format: ADME, organism-based; settings: in vivo
[18] = Clearance in Beagle dog at 1 mg/kg, iv; format: ADME, organism-based, Canis lupus familiaris; settings: in vivo
[19] = as §1, with “at 0.3” for “at 1”; format: functional
[20] = Tmax in C57BL/6 mouse at 3 mg/kg, po; format: ADME, organism-based; settings: in vivo
[21] = Ratio of drug concentration in brain to plasma in C57BL/6 mouse measured at 5 mins; format: ADME, organism-based; settings: read-out: BPR
[22] = Drug uptake in C57BL/6 mouse brain at 3 mg/kg, iv measured at 1 hr; format: ADME, organism-based; settings: read-out: Drug uptake
[23] = Apparent permeability of the compound at pH 6.5 to 7.4 by PAMPA; format: ADME
[24] = Oral bioavailability in Beagle dog at 3 mg/kg; format: ADME, organism-based, Canis lupus familiaris; settings: in vivo
[25] = as §2, with “10” for “30”; format: functional; settings: C57BL/6, 72 h, time 3 day

- Vd [1]: 1.52 L/kg
- Vd [2]: 3.32 L/kg
- IC50 [3]: > 10 µM
- fraction unbound [4]: < 0.01
- AUC(0-t) [5]: 784 ng·h/mL
- Tmax [7]: 49.8 min
- bioavailability [10]: 34%
- clearance [11]: 6.52 mL/min/kg
- IC50 [12]: 0.0002 µM
- Cmax [13]: 405 ng/mL
- IC50 [15]: > 10 µM
- bioavailability [17]: 40%
- clearance [18]: 6.32 mL/min/kg
- Tmax [20]: 30 min
- Kp at 5 min [21]: 0.69
- concentration at 1 h [22]: 148 ng/mL
- Papp [23]: > 80 ×10⁻⁶ cm/s
- bioavailability [24]: 52%
SMILES: CNC(=O)c1csc2c(C(F)(F)F)cc(N3CCC(OC(=O)N[C@@H](C)COC(F)(F)F)CC3)nc12
- inhibition in vivo at 1 mg/kg [6]: 43%
- inhibition in vivo at 30 mg/kg [8]: 94%
- inhibition in vivo at 30 mg/kg [9]: 99%
- inhibition in vivo at 10 mg/kg [14]: 95%
- inhibition in vivo at 1 mg/kg [16]: 50%
- inhibition in vivo at 0.3 mg/kg [19]: 19%
- inhibition in vivo at 10 mg/kg [25]: 94%
